Source: PMC6149971, “In Vivo and In Vitro Activities and ADME-Tox Profile of a Quinolizidine-Modified 4-Aminoquinoline: A Potent Anti-P. falciparum and Anti-P. vivax Blood-Stage Antimalarial” (Molecules : A Journal of Synthetic Chemistry and Natural …, 2017)

Columns and labels:
[1] = Microsome stability and metabolism studies, human; assay type: in vitro ADME; parameters: key: +: Metabolic Products Detected In Vitro and In Vivo; ND: Not detectable; conditions: (−)-AM1 1 μM, at 30 min
Procedure: (§1) Samples from the metabolic stability and metabolism studies were analyzed under the following conditions: UPLC interfaced with a Premiere XE triple Quadrupole Waters for stability studies, and Bruker Daltonics Ion Trap HCT Ultra for metabolic studies. A gradient from 2% to 100% (Water, MeOH, 5 mM Ammonium Acetate) over 2 min (stability) or 12 min (metabolism) in a C18 BEH (dimensions 1 by 50 mm for stability and 2.1 by 100 mm for metabolism, 1.7 µm column, 45 °C temperature, flow rate 0.5 mL/min) was used. […]
For stability and metabolism studies, test compounds were dissolved in DMSO, diluted at the final concentration of 1 µM, and pre-incubated in duplicate for 10 min at 37 °C in potassium phosphate buffer, pH 7.4, 3 mM MgCl2, with rat, mouse, and human hepatic microsomes (Xenotech Europe, Pfungstadt, Germany) at the final concentration of 0.5 mg/mL. […] Samples were then centrifuged and the supernatants analysed and quantified by LC-MS/MS. […]
(§2) The percentage of the area of test compounds remaining after 30 min incubation was calculated in respect to the area of compounds at time = 0 min. […] Samples were re-analyzed by acquiring the daughter scan of the potential metabolites found during the full scan acquisition.

[2] = Microsome stability and metabolism studies, mouse; assay type: in vitro ADME; parameters: key: +: Metabolic Products Detected In Vitro and In Vivo; ND: Not detectable; conditions: (−)-AM1 1 μM, at 30 min
Procedure: (§3) Samples from the metabolic stability and metabolism studies were analyzed under the following conditions: UPLC interfaced with a Premiere XE triple Quadrupole Waters for stability studies, and Bruker Daltonics Ion Trap HCT Ultra for metabolic studies. A gradient from 2% to 100% (Water, MeOH, 5 mM Ammonium Acetate) over 2 min (stability) or 12 min (metabolism) in a C18 BEH (dimensions 1 by 50 mm for stability and 2.1 by 100 mm for metabolism, 1.7 µm column, 45 °C temperature, flow rate 0.5 mL/min) was used. For stability studies, the detection was performed in MRM (ESI positive, Q1/Q3 330.16/152.00, Cone Voltage 45 V; Extractor 5 V; Capillary 3.4 kV), while for metabolism studies, analysis was performed in Auto MS/MS mode (ESI positive; Capillary 109 V; Dry Temp 350 °C; Nebulizer 30 psi; Dry gas 10 L/min; HV capillary 500 V; Mass Accu time 500 µs; Mass range MS scan 100–600 amu, MS/MS 50–450 amu).
(§4) For stability and metabolism studies, test compounds were dissolved in DMSO, diluted at the final concentration of 1 µM, and pre-incubated in duplicate for 10 min at 37 °C in potassium phosphate buffer, pH 7.4, 3 mM MgCl2, with rat, mouse, and human hepatic microsomes (Xenotech Europe, Pfungstadt, Germany) at the final concentration of 0.5 mg/mL. The reaction was then started by adding the cofactor mixture of NADP, Glc6P, and G6P-DH, in the presence of UDPGA 1 mM in human microsomes to promote glucuronide formation. Acetonitrile (with verapamil as internal standard) was added to the samples at the times time 0 and 30 min to stop the reaction. Samples were then centrifuged and the supernatants analysed and quantified by LC-MS/MS. Reference compounds of known metabolic stability, 7-ethoxycoumarin (7-EC) and propranolol, were used as controls.
as §2

[3] = Microsome stability and metabolism studies, rat; assay type: in vitro ADME; parameters: key: +: Metabolic Products Detected In Vitro and In Vivo; ND: Not detectable; conditions: (−)-AM1 1 μM, at 30 min
Procedure: as §3, §4, §2

[4] = Metabolites in mouse plasma after oral treatment; assay type: in vivo; parameters: key: +: Metabolic Products Detected In Vitro and In Vivo; ND: Not detectable; conditions: after 50 mg/kg (−)-AM1 oral gavage, at 120 min
Procedure: A representative chromatogram in the mouse and the MS spectra are shown in Figure S1 (Supplementary Materials), while the proposed structures of metabolites in all the species, together with the retention times, are shown in Table 3. In the same table, the metabolites found in mouse plasma after 50 mg/kg oral treatment are included. The retention times and [M + H]^+ of the metabolites are the same for all three species.
The parent [M + H]^+ = 330 and the metabolites [M + H]^+ = 346 and [M + H]^+ = 344 were also detected in the mouse plasma samples collected after oral treatment of CD1 mice with 50 mg/kg of (−)-AM1 (Figure S4).
as §1

[5] = tested on: P. falciparum FCR3 (CQ-R); assay: In vitro chemosensitivity assay (pLDH), FCR3 strain; assay type: cell-based; conditions: Plasmodium falciparum, FCR3, 72 h, read-out: P. falciparum IC50, FCR3
[6] = tested on: P. vivax field isolates; assay: In vitro assay against P. vivax field isolates; assay type: cell-based; conditions: Plasmodium vivax, read-out: P. vivax IC50, field isolates
From the text: Ten P. vivax isolates were collected from June to July 2010 from malaria patients attending the Shoklo Malaria Research Unit (SMRU) clinics, Mae Sot region of the Tak Province in north-western Thailand under the ethical guidelines in the approved protocol OXTREC 027-05 (Centre for Clinical Vaccinology and Tropical Medicine, University of Oxford, Oxford, UK). These samples were collected from patients with no prior antimalarial therapy and with microscopically confirmed P. vivax. After written consent, blood samples were collected by venepuncture in 5 mL volume lithium heparinized tubes, which were then transported to the laboratory at SMRU within 5 h of collection. The ten isolates were chosen for testing because the majority (>80%) of the parasites were at the mid trophozoite stage (around 20 h post invasion) and no schizonts were detected.

[7] = tested on: P. falciparum D10 (CQ-S); parameters: method as in PMID 22901673; conditions: 72 h incubation, pLDH method, mean of 3 experiments; data already published; cited from earlier work
[8] = tested on: P. falciparum W-2 (CQ-R); parameters: method as in PMID 22901673; conditions: 72 h incubation, pLDH method, mean of 3 experiments; data already published; cited from earlier work
[9] = tested on: P. falciparum FCR1 (CQ-R); assay: In vitro chemosensitivity assay (pLDH), FCR1 strain; assay type: cell-based; conditions: Plasmodium falciparum, 72 h, read-out: P. falciparum IC50, FCR1
[10] = Maximum tolerated dose in CD1 mice; conditions: CD1, mouse, in vivo, ip
[11] = tested on: P. falciparum TM91C235 (multidrug-resistant); assay: In vitro chemosensitivity assay (pLDH), TM91C235 strain; assay type: cell-based; conditions: Plasmodium falciparum, 72 h, read-out: P. falciparum IC50, TM91C235

| SMILES | Metabolic products detected, in vitro microsomes, human [1] | Metabolic products detected, in vitro microsomes, mouse [2] | Metabolic products detected, in vitro microsomes, rat [3] | Metabolic products detected, in vivo plasma levels, mouse [4] | IC50 [5] [nM] | IC50 [6] [nM] | IC50 [7] [nM] | IC50 [8] [nM] | IC50 [9] [nM] | MTD [10] [mg/kg] | IC50 [11] [nM] |
| --- | --- | --- | --- | --- | --- | --- | --- | --- | --- | --- | --- |
| O=C(Nc1ccnc2cc(Cl)ccc12)[C@@H]1CCCN2CCCC[C@H]12 [C00002] | + | + | + |  |  |  |  |  |  |  |  |
| [O-][NH+](CC1CCCN2CCCCC12)c1ccnc2cc(Cl)ccc12 (centres unmarked) [C00003] | + | + | + | + |  |  |  |  |  |  |  |
| CCN(CC)CCCC(C)Nc1ccnc2cc(Cl)ccc12 (centres unmarked) [CQ, chloroquine, reference compound] |  |  |  |  | 113 | 86.7 | 23.7 | 438 | 182 | 50 | 199 |
